Holding throughout (settings): stereoisomer not certain
A short description of data set [1]: HILIC, Merck SeQuant ZIC-pHILIC, 150 × 2.1 mm, 5 µm, 40 °C, 0.3 mL/min, estimated dead time 1.1 min; A: acetonitrile; B: water + 2.8 mM ammonium formate, pH 9; gradient (min/%B) 0/5 1/5 10/51 13/51 13.1/5 20/5.
Data set [2] is described as follows: RP, Phenomenex Kinetex C18, 150 × 2.1 mm, 1.7 µm, 30 °C, 0.3 mL/min, estimated dead time 1.1 min; A: water + 0.1% formic acid, pH 3; B: acetonitrile + 0.1% formic acid, pH 3; gradient (min/%B) 0/2 14/100 17/100 17.1/2 25/2.
Assay in data set [3]: as above
The source holds these as a separate data set.

The nature of data set [4]: HILIC, Waters ACQUITY UPLC BEH Amide, 150 × 2.1 mm, 1.7 µm, 40 °C, 0.5 mL/min, estimated dead time 0.66 min; A: 5% water + 95% acetonitrile; B: 70% water + 30% acetonitrile + 10 mM ammonium formate, pH 6.5; gradient (min/%B) 0/0 2/0 20/70 23/70 24/0 31/0.

The structures appear in SMILES notation.

The text below walks through data of the RepoRT retention time repository (doi:10.1016/j.chroma.2019.01.023).

For `Cn1cnc2c(ncn2C2OC(CO)C(O)C2O)c1=N` (stereo unspecified) [1-METHYLADENOSINE], the LC retention time is 4.07 min in data set [1], 3.16 min in data set [2], 3.36 min in data set [3] and 2.82 min in data set [4].

For `O=c1[nH]c(=O)c2nccnc2[nH]1` [2,4-DIHYDROXYPTERIDINE], the LC retention time was 4.42 min in data set [1], 2.24 min in data set [2], 2.49 min in data set [3] and 1.79 min in data set [4].

Consider `N[C@@H](Cc1cc(I)c(Oc2ccc(O)cc2)c(I)c1)C(=O)O` [3,5-DIIODO-L-THYRONINE], for which the LC retention time in data set [1] was 6.36 min; in data set [2], 6.44 min; in data set [3] it was 6.51 min; in data set [4], 6.98 min.

On to `Nc1cc([O-])cc(C(=O)O)c1` [3-AMINO-5-HYDROXYBENZOATE], for which the LC retention time in data set [1] is 8.3 min; in data set [2], 1.62 min; in data set [3] it was 1.75 min; in data set [4], 2.31 min.

As to `CC(=O)NCCCC(=O)[O-]` [4-ACETAMIDOBUTANOATE], the LC retention time in data set [1] is 5.1 min; in data set [2], 2.47 min; in data set [3], 2.62 min; in data set [4], 3.11 min.

As for `O=C(O)c1ccnc2ccccc12` [4-QUINOLINECARBOXYLATE], the LC retention time is 5.08 min in data set [1], 2.29 min in data set [2], 2.5 min in data set [3] and 2.82 min in data set [4].

For `CC1OC(n2cnc3c(N)ncnc32)C(O)C1O` (stereo unspecified) [5'-DEOXYADENOSINE], the LC retention time was 4.24 min in data set [1], 3.11 min in data set [2], 3.24 min in data set [3] and 2.4 min in data set [4].

As for `O=C(O)Cc1c[nH]c2ccc(O)cc12` [5-HYDROXYINDOLEACETATE], the LC retention time in data set [1] is 5.86 min; in data set [2] it was 4.49 min; in data set [3], 4.69 min; in data set [4], 1.37 min.

In the case of `O=C(O)c1ccc(=O)[nH]c1` [6-HYDROXYNICOTINATE], the LC retention time in data set [1] is 7.69 min; in data set [2], 2.61 min; in data set [3] it was 2.76 min; in data set [4] it was 5.68 min.

For the compound `O=C(O)CCCCCCCC(=O)O` [AZELATE], the LC retention time was 3.51 min in data set [1], 6.14 min in data set [2], 6.26 min in data set [3] and 1.24 min in data set [4].

For `CC(CCC(=O)O)C1CCC2C3C(O)CC4CC(O)CCC4(C)C3CCC12C` (stereo unspecified) [CHENODEOXYCHOLATE], the figures for the LC retention time in data set [2], in data set [3] and in data set [4] were 10.7 min, 10.8 min and 1 min, respectively.

For `CC12CCC(=O)C=C1CCC1C2CCC2(C)C1CCC2(O)C(=O)CO` (stereo unspecified) [CORTEXOLONE], the LC retention time in data set [2] was 8.32 min; in data set [3], 8.31 min; in data set [4], 0.83 min.

Take `CC12CCC(=O)C=C1CCC1C2C(O)CC2(C)C(C(=O)CO)CCC12` (stereo unspecified) [CORTICOSTERONE]: the LC retention time in data set [2] was 8.03 min; in data set [3], 8.14 min; in data set [4], 0.85 min.

For `CC(=O)OCC(=O)C1(O)CCC2C3CCC4=CC(=O)CCC4(C)C3C(O)CC21C` (stereo unspecified) [CORTISOL 21-ACETATE], the LC retention time is 8.62 min in data set [2], 8.68 min in data set [3] and 0.83 min in data set [4].

For the compound `CC12CCC(=O)C=C1CCC1C2C(=O)CC2(C)C1CCC2(O)C(=O)CO` (stereo unspecified) [CORTISONE], the LC retention time in data set [2] was 7.16 min; in data set [3], 7.28 min; in data set [4], 0.86 min.

`CC(CCC(=O)NCCS(=O)(=O)O)C1CCC2C3CCC4CC(O)CCC4(C)C3CCC12C` (stereo unspecified) [LITHOCHOLYLTAURINE]: the LC retention time is 9.54 min in data set [2], 9.43 min in data set [3] and 1.01 min in data set [4].

Regarding `CC1NCCc2cc(O)c(O)cc21` (stereo unspecified) [SALSOLINOL], the values for the LC retention time in data set [2], in data set [3] and in data set [4] were 1.95 min, 2.16 min and 8.1 min, respectively.
